Experimental data reported in patent US6403111B1, “Method for preparing aqueous phytosphingosine solution” (Doosan Corporation, priority 2000, dated 2002).

Key:
[1] = cited from earlier work
[2] = Solubility of phytosphingosine in solvents; assay type: physicochemical; conditions: solvent: mixture of water, lactic acid and a willow bark extract

Amount solubilized to give a completely clear solution [2]: 5-10 weight %
SMILES: CCCCCCCCCCCCCC[C@@H](O)[C@@H](O)[C@@H](N)CO [Phytosphingosine, phytosphingosine]
Solubility in isocetyl alcohol ([1]; isocetyl alcohol): 1 wt % | Solubility in water ([1]; water): not soluble in water at all
